Assay results from patent publication US11767341B2, “Lincosamide antibiotics and uses thereof” (President and Fellows of Harvard College, priority 2017, dated 2023).
In brackets after ≈: the same amount, converted by molar mass. Read-outs that look alike come from different tables or passages of the source.

How the values were obtained:
Experiment in all cases: MIC determination
Format in all cases: cell-based
S. aureus BAA 977 iErmA = conditions: Staphylococcus aureus, BAA977
P. aeruginosa ATCC 27853 = conditions: Pseudomonas aeruginosa, ATCC27853
[1] = system: S. pneumoniae UNT-038, MP-626, TP 160 (mefA); conditions: Streptococcus pneumoniae
[2] = system: P. aeruginosa MMX Mex parent strain; conditions: Pseudomonas aeruginosa
C. difficile BAA 1805 = conditions: Clostridioides difficile, BAA1805; C. difficile BAA 1805; read-out: MIC
[3] = system: S. aureus UNT-120, MP-619, NRS22 (USA 600, GISA); conditions: Staphylococcus aureus
E. coli MMX 0121 ΔTolC = conditions: Escherichia coli
[4] = system: E. faecalis MMX 847 Macrolide-Resistant; conditions: Enterococcus faecalis
S. pneumoniae ATCC 49619 = conditions: Streptococcus pneumoniae, ATCC49619; S. pneumoniae ATCC 49619; read-out: MIC
[5] = system: E. coli MMX TolC parent strain; conditions: Escherichia coli
[6] = system: S. aureus Micromyx USA 300; conditions: Staphylococcus aureus, USA300; S. aureus Micromyx USA 300; read-out: MIC
[7] = system: S. aureus MP-549 msr(a) USA 300; conditions: Staphylococcus aureus, USA300, S. aureus MP-549 msr(a) USA 300
[8] = system: S. aureus UNT96, NRS710, MP-618 (USA 100, Erythro >8); conditions: Staphylococcus aureus
[9] = system: K. pneumoniae IHMA 658692; KPC-2; conditions: Klebsiella pneumoniae
[10] = system: S. aureus BAA-1556 (USA 300); conditions: Staphylococcus aureus
E. coli ATCC 25922 = conditions: Escherichia coli
[11] = system: S. pneumoniae TP 1579 (ermB + tet(M, O)); conditions: Streptococcus pneumoniae
[12] = system: S. pneumoniae MMX 3031 cMefA; conditions: Streptococcus pneumoniae, MMX3031CMEFA
S. pyogenes ATCC 19615 = conditions: Streptococcus pyogenes, ATCC19615; S. pyogenes ATCC 19615; read-out: MIC
S. aureus MMX 3035 cErmA = conditions: Staphylococcus aureus, MMX3035CERMA
[13] = system: S. pyogenes MMX 946 Macrolide-Resistant; conditions: Streptococcus pyogenes
[14] = system: S. pyogenes UNT-014, MP-625 MacRes; conditions: Streptococcus pyogenes; S. pyogenes UNT-014, MP-625 MacRes; read-out: MIC
E. faecalis ATCC 29212 = conditions: Enterococcus faecalis
E. faecalis UNT-047 VRE = conditions: Enterococcus faecalis
B. fragilis ATCC 25285 = conditions: Bacteroides fragilis, ATCC25285; B. fragilis ATCC 25285; read-out: MIC
H. influenzae ATCC 49247 = conditions: Haemophilus influenzae, ATCC49247; H. influenzae ATCC 49247; read-out: MIC
E. coli GUEST131 (NDM-1) = conditions: Escherichia coli
K. pneumoniae UNT TEM-10 = conditions: Klebsiella pneumoniae, UNTTEM10
[15] = system: P. aeruginosa MMX 3476 Δmex; conditions: Pseudomonas aeruginosa
[16] = system: S. aureus UNT-146, MP-620, TP 506 (ermA); conditions: Staphylococcus aureus
[17] = system: S. pneumoniae TP 1537 (ermB + mefA); conditions: Streptococcus pneumoniae
[18] = system: S. pneumoniae MMX 3028 cErmB; conditions: Streptococcus pneumoniae, MMX3028CERMB; S. pneumoniae MMX 3028 cErmB; read-out: MIC
S. aureus ATCC 29213 = conditions: Staphylococcus aureus, ATCC29213, S. aureus ATCC 29213; read-out: MIC
[19] = system: S. pneumoniae UNT-039, MP-627, TP1517 (mefA); conditions: Streptococcus pneumoniae
K. pneumoniae ATCC 10031 = conditions: Klebsiella pneumoniae, ATCC10031; K. pneumoniae ATCC 10031; read-out: MIC
[20] = P. aeruginosa ATCC 27853, read-out: MIC
[21] = S. aureus UNT-120, MP-619, NRS22 (USA 600, GISA), read-out: MIC
[22] = S. aureus UNT96, NRS710, MP-618 (USA 100, Erythro >8), read-out: MIC
[23] = K. pneumoniae IHMA 658692, KPC-2, read-out: MIC
[24] = S. aureus BAA-1556 (USA 300), read-out: MIC
[25] = ATCC25922, E. coli ATCC 25922, read-out: MIC
[26] = E. faecalis UNT-047 VRE, read-out: MIC
[27] = S. aureus UNT-146, MP-620, TP 506 (ermA), read-out: MIC
[28] = S. pneumoniae TP 1537 (ermB + mefA), read-out: MIC

## CSC1O[C@H]([C@H](NC(=O)[C@H]2NC[C@@H]3CC=CCO[C@H]32)[C@H](C)Cl)C(O)[C@@H](O)[C@H]1O (some centres unmarked) [FSA-24035]
S. aureus BAA 977 iErmA
  MIC: 0.25 µg/mL (≈ 0.572 µM)
P. aeruginosa ATCC 27853
  MIC: > 64 µg/mL
[1]
  MIC: ≤ 0.0313 µg/mL
[2]
  MIC: > 64 µg/mL
C. difficile BAA 1805
  MIC: 2 µg/mL (≈ 4.58 µM)
[3]
  MIC: > 32 µg/mL
E. coli MMX 0121 ΔTolC
  MIC: 4 µg/mL (≈ 9.15 µM)
[4]
  MIC: > 64 µg/mL
S. pneumoniae ATCC 49619
  MIC: ≤ 0.06 µg/mL
[5]
  MIC: > 64 µg/mL
[6]
  MIC: 0.12 µg/mL (≈ 0.275 µM)
[7]
  MIC: 0.5 µg/mL (≈ 1.14 µM)
[8]
  MIC: > 32 µg/mL
[9]
  MIC: 32 µg/mL (≈ 73.2 µM)
[10]
  MIC: > 32 µg/mL
E. coli ATCC 25922; ATCC25922
  MIC: > 64 µg/mL
[11]
  MIC: ≤ 0.0313 µg/mL
[12]
  MIC: ≤ 0.06 µg/mL
S. pyogenes ATCC 19615
  MIC: ≤ 0.0313 µg/mL
S. aureus MMX 3035 cErmA
  MIC: > 64 µg/mL
[13]
  MIC: 16 µg/mL (≈ 36.6 µM)
[14]
  MIC: ≤ 0.0313 µg/mL
E. faecalis ATCC 29212; ATCC29212
  MIC: 16 µg/mL (≈ 36.6 µM)
E. faecalis UNT-047 VRE; VRE
  MIC: > 32 µg/mL
B. fragilis ATCC 25285
  MIC: 8 µg/mL (≈ 18.3 µM)
H. influenzae ATCC 49247
  MIC: 1 µg/mL (≈ 2.29 µM)
E. coli GUEST131 (NDM-1)
  MIC: > 32 µg/mL
K. pneumoniae UNT TEM-10
  MIC: 32 µg/mL (≈ 73.2 µM)
[15]
  MIC: 16 µg/mL (≈ 36.6 µM)
[16]
  MIC: > 32 µg/mL
[17]
  MIC: 32 µg/mL (≈ 73.2 µM)
[18]
  MIC: 64 µg/mL (≈ 146 µM)
S. aureus ATCC 29213
  MIC: 0.12 µg/mL (≈ 0.275 µM)
[19]
  MIC: ≤ 0.0313 µg/mL
K. pneumoniae ATCC 10031
  MIC: 64 µg/mL (≈ 146 µM)

## CSC1O[C@H]([C@H](NC(=O)[C@H]2NC[C@@H]3CC(F)(F)CCO[C@H]32)[C@H](C)Cl)C(O)[C@@H](O)[C@H]1O (some centres unmarked) [FSA-24036]
S. aureus BAA 977 iErmA
  MIC: 0.5 µg/mL (≈ 1.05 µM)
P. aeruginosa ATCC 27853; [20]
  MIC: > 64 µg/mL
[1]
  MIC: ≤ 0.0313 µg/mL
[2]; P. aeruginosa MMX Mex parent strain, read-out: MIC
  MIC: > 64 µg/mL
C. difficile BAA 1805
  MIC: 2 µg/mL (≈ 4.21 µM)
[3]; [21]
  MIC: > 32 µg/mL
E. coli MMX 0121 ΔTolC
  MIC: 8 µg/mL (≈ 16.8 µM)
[4]; E. faecalis MMX 847 Macrolide-Resistant (MacRes), read-out: MIC
  MIC: > 64 µg/mL
S. pneumoniae ATCC 49619
  MIC: ≤ 0.06 µg/mL
[5]; E. coli MMX TolC parent strain, read-out: MIC
  MIC: > 64 µg/mL
[6]
  MIC: 0.12 µg/mL (≈ 0.253 µM)
[8]; [22]
  MIC: > 32 µg/mL
[9]; [23]
  MIC: > 32 µg/mL
[10]; [24]
  MIC: > 32 µg/mL
E. coli ATCC 25922; [25]
  MIC: > 64 µg/mL
[11]
  MIC: ≤ 0.0313 µg/mL
[12]
  MIC: ≤ 0.06 µg/mL
S. pyogenes ATCC 19615
  MIC: ≤ 0.0313 µg/mL
S. aureus MMX 3035 cErmA; S. aureus MMX 3035 cErmA, read-out: MIC
  MIC: > 64 µg/mL
[13]; S. pyogenes MMX 946 Macrolide-Resistant (MacRes), read-out: MIC
  MIC: 4 µg/mL (≈ 8.42 µM)
[14]
  MIC: ≤ 0.0313 µg/mL
E. faecalis ATCC 29212; ATCC29212, read-out: MIC
  MIC: 4 µg/mL (≈ 8.42 µM)
E. faecalis UNT-047 VRE; [26]
  MIC: > 32 µg/mL
B. fragilis ATCC 25285
  MIC: 4 µg/mL (≈ 8.42 µM)
H. influenzae ATCC 49247
  MIC: 4 µg/mL (≈ 8.42 µM)
E. coli GUEST131 (NDM-1)
  MIC: > 32 µg/mL
K. pneumoniae UNT TEM-10; K. pneumoniae UNT TEM-10, read-out: MIC
  MIC: > 32 µg/mL
[15]
  MIC: 32 µg/mL (≈ 67.4 µM)
[16]; [27]
  MIC: > 32 µg/mL
[17]; [28]
  MIC: > 32 µg/mL
[18]
  MIC: 64 µg/mL (≈ 135 µM)
S. aureus ATCC 29213
  MIC: 0.25 µg/mL (≈ 0.526 µM)
[19]
  MIC: ≤ 0.0313 µg/mL
K. pneumoniae ATCC 10031
  MIC: 16 µg/mL (≈ 33.7 µM)

## CSC1O[C@H]([C@H](NC(=O)[C@H]2NC[C@@H]3CCCO[C@H]32)[C@H](C)Cl)C(O)[C@@H](O)[C@H]1O (some centres unmarked) [FSA-24041]
P. aeruginosa ATCC 27853; [20]
  MIC: > 32 µg/mL
[1]
  MIC: 0.0625 µg/mL (≈ 0.147 µM)
[3]; [21]
  MIC: > 32 µg/mL
S. pneumoniae ATCC 49619
  MIC: 0.0625 µg/mL (≈ 0.147 µM)
[8]; [22]
  MIC: > 32 µg/mL
[9]; [23]
  MIC: > 32 µg/mL
[10]; [24]
  MIC: > 32 µg/mL
E. coli ATCC 25922; [25]
  MIC: > 32 µg/mL
[11]
  MIC: ≤ 0.0313 µg/mL
S. pyogenes ATCC 19615
  MIC: ≤ 0.0313 µg/mL
[14]
  MIC: 0.0625 µg/mL (≈ 0.147 µM)
E. faecalis ATCC 29212; ATCC29212, read-out: MIC
  MIC: 32 µg/mL (≈ 75.3 µM)
E. faecalis UNT-047 VRE; [26]
  MIC: > 32 µg/mL
H. influenzae ATCC 49247
  MIC: 32 µg/mL (≈ 75.3 µM)
E. coli GUEST131 (NDM-1)
  MIC: > 32 µg/mL
[16]; [27]
  MIC: > 32 µg/mL
[17]; [28]
  MIC: > 32 µg/mL
S. aureus ATCC 29213
  MIC: 0.5 µg/mL (≈ 1.18 µM)
[19]
  MIC: ≤ 0.0313 µg/mL
K. pneumoniae ATCC 10031
  MIC: > 32 µg/mL
